Laboratory results published in the supplement of paper PMC10307832.

Legend:
Assay in all cases: relative viability (nuclei count vs DMSO), 5 days (fraction); higher = more cells survive
[1] = compound: CC1=C(C(=O)N2C=CSC2=N1)CCN3CCC(=C(C4=CC=CC=C4)C5=CC=C(C=C5)F)CC3 + CS(=O)(=O)N1CCN(Cc2cc3nc(-c4cccc5[nH]ncc45)nc(N4CCOCC4)c3s2)CC1 [Pictilisib] (partner 1 µM)
In short: (§1)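 Dosing by pin tool came one day after lung cancer cell lines were seeded in 1536-well plates, using either one drug or a fixed anchor-drug dose plus five library-drug doses (not always all listed) in √10 steps. After 5 days, nuclei were counted on 4× images. Relative viability is treated-well nuclei count divided by vehicle-well nuclei count, and values are medians of duplicate plates.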

[2] = compound: CC1=C(C(=O)N2C=CSC2=N1)CCN3CCC(=C(C4=CC=CC=C4)C5=CC=C(C=C5)F)CC3 + C[C@@H](Oc1cc(-c2cnn(C3CCNCC3)c2)cnc1N)c1c(Cl)ccc(F)c1Cl [Crizotinib] (partner 1 µM)
In short: as §1

[3] = compound: CC1=C(C(=O)N2C=CSC2=N1)CCN3CCC(=C(C4=CC=CC=C4)C5=CC=C(C=C5)F)CC3 + Cc1nc(Nc2ncc(C(=O)Nc3c(C)cccc3Cl)s2)cc(N2CCN(CCO)CC2)n1 [Dasatinib] (partner 0.075 µM)
In short: as §1

[4] = compound: CC1=C(C(=O)N2C=CSC2=N1)CCN3CCC(=C(C4=CC=CC=C4)C5=CC=C(C=C5)F)CC3 + O=C(CCCCCCC(=O)Nc1ccccc1)NO [Vorinostat] (partner 1 µM)
In short: as §1

NCI-H3122 gave a relative viability ([1]; first compound 0.08 µM) of 0.72, a relative viability ([1]; first compound 0.253 µM) of 0.678 and a relative viability ([1]; first compound 0.8 µM) of 0.574. The relative viability ([1]; first compound 2.53 µM) was 0.768, the relative viability ([1]; first compound 8 µM) was 0.623 and the relative viability ([2]; first compound 0.08 µM) was 0.286. For the same cell line, the relative viability ([2]; first compound 0.253 µM) was 0.262, the relative viability ([2]; first compound 0.8 µM) was 0.258 and the relative viability ([2]; first compound 2.53 µM) was 0.316. For the same cell line, the relative viability ([2]; first compound 8 µM) was 0.267, the relative viability ([3]; first compound 0.08 µM) was 1.02 and the relative viability ([3]; first compound 0.253 µM) was 0.769. It also gave a relative viability ([3]; first compound 0.8 µM) of 0.781, a relative viability ([3]; first compound 2.53 µM) of 1.06 and a relative viability ([3]; first compound 8 µM) of 0.524. For the same cell line, the relative viability ([4]; first compound 0.08 µM) was 0.875, the relative viability ([4]; first compound 0.253 µM) was 1.1 and the relative viability ([4]; first compound 0.8 µM) was 1.08. It also gave a relative viability ([4]; first compound 2.53 µM) of 0.987 and a relative viability ([4]; first compound 8 µM) of 0.516.

Cell Line PC-3 [JPC-3] has a relative viability ([1]; first compound 0.08 µM) of 0.78, a relative viability ([1]; first compound 0.253 µM) of 0.746 and a relative viability ([1]; first compound 0.8 µM) of 0.72. For the same cell line, the relative viability ([1]; first compound 2.53 µM) was 0.765, the relative viability ([1]; first compound 8 µM) was 0.711 and the relative viability ([2]; first compound 0.08 µM) was 1.02. The relative viability ([2]; first compound 0.253 µM) was 0.984, the relative viability ([2]; first compound 0.8 µM) was 1.15 and the relative viability ([2]; first compound 2.53 µM) was 1.1. For the same cell line, the relative viability ([2]; first compound 8 µM) was 0.919, the relative viability ([3]; first compound 0.08 µM) was 0.901 and the relative viability ([3]; first compound 0.253 µM) was 0.702. For the same cell line, the relative viability ([3]; first compound 0.8 µM) was 1.01, the relative viability ([3]; first compound 2.53 µM) was 1.14 and the relative viability ([3]; first compound 8 µM) was 0.844. For the same cell line, the relative viability ([4]; first compound 0.08 µM) was 0.746, the relative viability ([4]; first compound 0.8 µM) was 0.748 and the relative viability ([4]; first compound 2.53 µM) was 0.879. For the same cell line, the relative viability ([4]; first compound 8 µM) was 0.666.

Work on PC-14 yielded a relative viability ([1]; first compound 0.08 µM) of 0.604, a relative viability ([1]; first compound 0.253 µM) of 0.617 and a relative viability ([1]; first compound 0.8 µM) of 0.708. For the same cell line, the relative viability ([1]; first compound 2.53 µM) was 0.93, the relative viability ([1]; first compound 8 µM) was 0.399 and the relative viability ([2]; first compound 0.08 µM) was 0.919. The relative viability ([2]; first compound 0.253 µM) was 0.907, the relative viability ([2]; first compound 0.8 µM) was 0.875 and the relative viability ([2]; first compound 2.53 µM) was 1.13. The relative viability ([2]; first compound 8 µM) was 0.716, the relative viability ([3]; first compound 0.08 µM) was 0.228 and the relative viability ([3]; first compound 0.253 µM) was 0.284. It also gave a relative viability ([3]; first compound 0.8 µM) of 0.21, a relative viability ([3]; first compound 2.53 µM) of 0.237 and a relative viability ([3]; first compound 8 µM) of 0.282. The relative viability ([4]; first compound 0.08 µM) was 0.677, the relative viability ([4]; first compound 0.253 µM) was 0.901 and the relative viability ([4]; first compound 0.8 µM) was 0.866. It also gave a relative viability ([4]; first compound 2.53 µM) of 0.762 and a relative viability ([4]; first compound 8 µM) of 0.623.

Work on RERF-LC-KJ yielded a relative viability ([1]; first compound 0.08 µM) of 0.627, a relative viability ([1]; first compound 0.253 µM) of 0.495 and a relative viability ([1]; first compound 0.8 µM) of 0.511. It also gave a relative viability ([1]; first compound 2.53 µM) of 0.497, a relative viability ([1]; first compound 8 µM) of 0.487 and a relative viability ([2]; first compound 0.08 µM) of 0.789. For the same cell line, the relative viability ([2]; first compound 0.253 µM) was 0.851, the relative viability ([2]; first compound 0.8 µM) was 0.775 and the relative viability ([2]; first compound 2.53 µM) was 0.835. It also gave a relative viability ([2]; first compound 8 µM) of 0.795, a relative viability ([3]; first compound 0.08 µM) of 0.706 and a relative viability ([3]; first compound 0.253 µM) of 0.892. The relative viability ([3]; first compound 0.8 µM) was 0.879, the relative viability ([3]; first compound 2.53 µM) was 0.688 and the relative viability ([3]; first compound 8 µM) was 0.492. For the same cell line, the relative viability ([4]; first compound 0.08 µM) was 0.617, the relative viability ([4]; first compound 0.253 µM) was 0.658 and the relative viability ([4]; first compound 0.8 µM) was 0.793. The relative viability ([4]; first compound 2.53 µM) was 0.716 and the relative viability ([4]; first compound 8 µM) was 0.48.

Cell Line SK-LU-1 has a relative viability ([1]; first compound 0.08 µM) of 0.538, a relative viability ([1]; first compound 0.253 µM) of 0.587 and a relative viability ([1]; first compound 0.8 µM) of 0.655. It also gave a relative viability ([1]; first compound 2.53 µM) of 0.573, a relative viability ([1]; first compound 8 µM) of 0.494 and a relative viability ([2]; first compound 0.08 µM) of 1.03. For the same cell line, the relative viability ([2]; first compound 0.253 µM) was 0.849, the relative viability ([2]; first compound 0.8 µM) was 0.801 and the relative viability ([2]; first compound 2.53 µM) was 0.979. The relative viability ([2]; first compound 8 µM) was 0.698, the relative viability ([3]; first compound 0.08 µM) was 0.196 and the relative viability ([3]; first compound 0.253 µM) was 0.172. For the same cell line, the relative viability ([3]; first compound 0.8 µM) was 0.19, the relative viability ([3]; first compound 2.53 µM) was 0.18 and the relative viability ([3]; first compound 8 µM) was 0.178. For the same cell line, the relative viability ([4]; first compound 0.08 µM) was 0.773, the relative viability ([4]; first compound 0.253 µM) was 0.708 and the relative viability ([4]; first compound 0.8 µM) was 0.75. It also gave a relative viability ([4]; first compound 2.53 µM) of 0.783 and a relative viability ([4]; first compound 8 µM) of 0.713.

In the case of SK-MES-1, the relative viability ([1]; first compound 0.08 µM) was 0.386, the relative viability ([1]; first compound 0.253 µM) was 0.396 and the relative viability ([1]; first compound 0.8 µM) was 0.357. It also gave a relative viability ([1]; first compound 2.53 µM) of 0.33, a relative viability ([1]; first compound 8 µM) of 0.261 and a relative viability ([2]; first compound 0.08 µM) of 1.11. For the same cell line, the relative viability ([2]; first compound 0.253 µM) was 0.969, the relative viability ([2]; first compound 0.8 µM) was 0.975 and the relative viability ([2]; first compound 2.53 µM) was 1.1. For the same cell line, the relative viability ([2]; first compound 8 µM) was 0.916, the relative viability ([3]; first compound 0.08 µM) was 0.383 and the relative viability ([3]; first compound 0.253 µM) was 0.273. The relative viability ([3]; first compound 0.8 µM) was 0.27, the relative viability ([3]; first compound 2.53 µM) was 0.334 and the relative viability ([3]; first compound 8 µM) was 0.369. For the same cell line, the relative viability ([4]; first compound 0.08 µM) was 1.1, the relative viability ([4]; first compound 0.253 µM) was 1.18 and the relative viability ([4]; first compound 0.8 µM) was 1.29. It also gave a relative viability ([4]; first compound 2.53 µM) of 1.17 and a relative viability ([4]; first compound 8 µM) of 0.698.

SW 1573 showed a relative viability ([1]; first compound 0.253 µM) of 0.478, a relative viability ([1]; first compound 0.8 µM) of 0.478 and a relative viability ([1]; first compound 2.53 µM) of 0.486. It also gave a relative viability ([1]; first compound 8 µM) of 0.264, a relative viability ([2]; first compound 0.08 µM) of 0.74 and a relative viability ([2]; first compound 0.253 µM) of 0.919. The relative viability ([2]; first compound 0.8 µM) was 0.819, the relative viability ([2]; first compound 2.53 µM) was 0.714 and the relative viability ([2]; first compound 8 µM) was 0.726. It also gave a relative viability ([3]; first compound 0.253 µM) of 0.586, a relative viability ([3]; first compound 0.8 µM) of 0.537 and a relative viability ([3]; first compound 2.53 µM) of 0.512. It also gave a relative viability ([3]; first compound 8 µM) of 0.225, a relative viability ([4]; first compound 0.08 µM) of 0.808 and a relative viability ([4]; first compound 0.253 µM) of 0.697. It also gave a relative viability ([4]; first compound 0.8 µM) of 1.01, a relative viability ([4]; first compound 2.53 µM) of 0.795 and a relative viability ([4]; first compound 8 µM) of 0.423.

Cell Line UMC-11 has a relative viability ([1]; first compound 0.08 µM) of 0.953, a relative viability ([1]; first compound 0.253 µM) of 0.811 and a relative viability ([1]; first compound 0.8 µM) of 0.8. For the same cell line, the relative viability ([1]; first compound 2.53 µM) was 1.15, the relative viability ([1]; first compound 8 µM) was 0.733 and the relative viability ([2]; first compound 0.08 µM) was 0.636. The relative viability ([2]; first compound 0.253 µM) was 0.597, the relative viability ([2]; first compound 0.8 µM) was 0.619 and the relative viability ([2]; first compound 2.53 µM) was 0.48. For the same cell line, the relative viability ([2]; first compound 8 µM) was 0.839, the relative viability ([3]; first compound 0.08 µM) was 0.526 and the relative viability ([3]; first compound 0.253 µM) was 0.422. The relative viability ([3]; first compound 0.8 µM) was 0.525, the relative viability ([3]; first compound 2.53 µM) was 0.824 and the relative viability ([3]; first compound 8 µM) was 0.357. For the same cell line, the relative viability ([4]; first compound 0.08 µM) was 0.38, the relative viability ([4]; first compound 0.8 µM) was 0.354 and the relative viability ([4]; first compound 2.53 µM) was 0.333. For the same cell line, the relative viability ([4]; first compound 8 µM) was 0.405.
